Data: PMC10683482, “Offsetting Low-Affinity Carbohydrate Binding with Covalency to Engage Sugar-Specific Proteins for Tumor-Immune Proximity Induction” (ACS Central Science, 2023)

System: Hek-PSMA cells
Test: ADCC reporter assay with polyclonal human IgG, column step (Figure 3)
Type: cell-based
Conditions: 50 μM compound with 230 μM human IgG 72 h, column washing step
Protocol: Next, we investigated the potential ability of rhamnose cARMs and noncovalent ARM analogs to induce immune proximity with cancer targets. […] These compounds were then evaluated for their capacity to activate immune cells against PSMA cancer targets (Hek-PSMA cells) in an ADCC reporter assay (Figure 3). […] The formation of this complex may be prevented by the alkyl linker, which could adopt a fixed conformation via hydrophobic collapse.
Figure 3 ADCC reporter assay to evaluate cARM vs ARM immune function using polyclonal anti-rhamnose antibodies. Top: chemical structures of compounds evaluated. Bottom: ADCC assay. Each cARM/ARM (50 μM) was incubated with polyclonal human IgG (230 μM) for 72 h and passed through a Millipore centrifugation column. Antibody solutions were then resuspended to experimental concentrations and added to preplated Hek-P cells (50,000 cells). To this cell solution, luciferase-expressing jurkat cells were added and incubated for 24 h. Activation of jurkat was determined as a measure of luciferase expression with a BioGlo assay kit.
General Notes and Materials
ELISA - General notes and Materials […]
Plate absorbance was measured at 450 nm using a Tecan Spark Plate Reader. […]
Pre-cast Tris-Glycine Gels (4-20%) were purchased from Fisher Scientific (XP04202BOX). […] Gel fluorescence was imaged using a GE Typhoon imager (Cy2 channel for fluorescein, Cy5 channel for A647). […]

SMILES | immune activation (jurkat luciferase)
C[C@@H]1O[C@@H](OCc2cn(CCc3cn(C(=O)OCCNC(=O)CCCCCNC(=O)CCCCCNC(=O)CCCCCNC(=O)NCCCC[C@H](NC(=O)N[C@@H](CCC(=O)O)C(=O)O)C(=O)O)cn3)nn2)[C@H](O)[C@H](O)[C@H]1O [compound 10] | successfully mediated specific immune activation
C[C@@H]1O[C@@H](OCc2cn(CCCNC(=O)OCCNC(=O)CCCCCNC(=O)CCCCCNC(=O)CCCCCNC(=O)NCCCC[C@H](NC(=O)N[C@@H](CCC(=O)O)C(=O)O)C(=O)O)nn2)[C@H](O)[C@H](O)[C@H]1O [compound 11] | failed to induce immune activation
